These results are taken from ChEMBL document CHEMBL1201862, “PubChem BioAssay data set” (2004).

Some test systems named below: ACHN; HCC 2998; HCT-116; HCT-15; HT-29; IGROV-1; Malme-3M; RPMI-8226; RXF 393; SF-539; SK-MEL-28; SK-MEL-5; SNB-75; U-251; UACC-257; NCI-H522.
Experiment in all cases: NCI tumour cell line growth inhibition, 48 h

The structures appear in SMILES notation.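 How tested: cells in 96-well plates exposed to compound for 48 hours at five concentrations. GI50 = concentration required for 50% inhibition of growth.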 Calls of active or inactive are those of the source. No stated cut-off is given here; in the data, active = GI50 up to about 1.1 µM and inactive = higher.

Regarding `CCCCCCCSCC1OC(n2cnc3c(N)ncnc32)C(O)C1O` (stereo not drawn), the GI50 in the experiment on ACHN is 25.9 µM (inactive); with HCC 2998, 20.9 µM (inactive); in the experiment on HCT-116, 3.59 µM (inactive); in the experiment with HCT-15, 4.5 µM; in the experiment on HT-29, 1.42 µM (inactive); in the experiment on IGROV-1, 14.6 µM (inactive). Also, the GI50 in the experiment with Malme-3M was 49.3 µM (inactive); with RPMI-8226 it was 12.6 µM (inactive); with RXF 393 it was > 100 µM (inactive); in the experiment on SF-539, 32.7 µM (inactive); with SK-MEL-28, > 100 µM (inactive); in the experiment with SK-MEL-5, 16.2 µM (inactive). In addition, the results for the GI50 in the experiment on SNB-75, with U-251 and in the experiment with UACC-257 were 24 µM (inactive), > 100 µM (inactive) and 18.3 µM (inactive), respectively.
As for `CC(=O)C(CN(C)C)C(c1ccccc1)c1c(O)c2ccccc2oc1=O` (stereo not drawn), the GI50 with ACHN was > 100 µM (inactive); with HCC 2998, > 100 µM (inactive); in the experiment with HCT-116, > 100 µM (inactive); in the experiment with HCT-15 it was over 100 µM; with HT-29 it was > 100 µM (inactive); in the experiment with IGROV-1, > 100 µM (inactive). The GI50 in the experiment on Malme-3M, with NCI-H522, with RPMI-8226, in the experiment with RXF 393, in the experiment with SF-539 and in the experiment with SK-MEL-28 was > 100 µM (inactive) throughout. Also, the GI50 is > 100 µM (inactive) with SK-MEL-5, 14.3 µM (inactive) in the experiment on SNB-75, > 100 µM (inactive) in the experiment with U-251 and > 100 µM (inactive) with UACC-257.
`COc1ccc(C=O)c(NC(=O)C(C)C)c1`: the GI50 with ACHN was 29.8 µM (inactive); in the experiment on HCT-116, 15.8 µM (inactive); in the experiment with HCT-15 it was 33.3 µM; in the experiment on HT-29, 66.7 µM (inactive); in the experiment with IGROV-1 it was > 100 µM (inactive); with Malme-3M it was 27.4 µM (inactive). The GI50 with NCI-H522 is 15.9 µM (inactive); in the experiment with RPMI-8226, 20.5 µM (inactive); with RXF 393, 12.3 µM (inactive); in the experiment with SF-539, 40.4 µM (inactive); with SK-MEL-28, 69.2 µM (inactive); in the experiment with SK-MEL-5, > 10 µM (inactive). Also, the GI50 was 30.6 µM (inactive) in the experiment on SNB-75, 77.1 µM (inactive) in the experiment with U-251 and 27.2 µM (inactive) in the experiment on UACC-257.
Consider `C/C(=N\NC(=S)Nc1ccc([N+](=O)[O-])cc1S(=O)(=O)O)c1ccccn1`, for which the GI50 in the experiment on ACHN is 62.4 µM (inactive); with HCC 2998 it was 30.9 µM (inactive); with HCT-116, 28.4 µM (inactive); in the experiment on HCT-15, 37.6 µM; in the experiment with HT-29, 34.6 µM (inactive); in the experiment with IGROV-1, 73.1 µM (inactive). In addition, the GI50 is 95.9 µM (inactive) in the experiment with Malme-3M; 40 µM (inactive) in the experiment on RPMI-8226; 38.8 µM (inactive) with RXF 393; 46.3 µM (inactive) in the experiment with SF-539; > 100 µM (inactive) with SK-MEL-28; 57.8 µM (inactive) in the experiment with SK-MEL-5. For the same molecule, the values for the GI50 with SNB-75, in the experiment on U-251 and in the experiment with UACC-257 were 43 µM (inactive), 33.5 µM (inactive) and > 100 µM (inactive), respectively.
As for `O=C1c2ccccc2CCCCCCCCCCC12OCCCO2`, the GI50 was 52.4 µM (inactive) with ACHN; 25.4 µM (inactive) with HCC 2998; 16 µM (inactive) with HCT-116; 25.8 µM with HCT-15; 15.1 µM (inactive) in the experiment with HT-29; 41.4 µM (inactive) in the experiment on IGROV-1. Also, the GI50 in the experiment with Malme-3M is 30.9 µM (inactive); in the experiment with NCI-H522, 24.5 µM (inactive); in the experiment on RPMI-8226, 15.5 µM (inactive); in the experiment with RXF 393 it was 10.6 µM (inactive); with SF-539, 58.1 µM (inactive); in the experiment with SK-MEL-28, 55.8 µM (inactive). Further, the GI50 in the experiment with SK-MEL-5 was 35.6 µM (inactive); with SNB-75 it was 25.6 µM (inactive); in the experiment with U-251 it was 24.4 µM (inactive); in the experiment with UACC-257, 24 µM (inactive).
Consider `CN(C)CC1(Cc2ccccc2)CC/C(=C\c2ccccc2)C1=O` (stereo not drawn), for which the GI50 in the experiment with ACHN is 50.7 µM (inactive); in the experiment with HCC 2998, 19.9 µM (inactive); with HCT-116 it was 29.1 µM (inactive); with HCT-15 it was 19.8 µM; in the experiment on HT-29, 20.7 µM (inactive); in the experiment with IGROV-1, 47.8 µM (inactive). The GI50 is 44 µM (inactive) in the experiment with Malme-3M; 15.2 µM (inactive) in the experiment on NCI-H522; 23.9 µM (inactive) in the experiment with RPMI-8226; 35.6 µM (inactive) in the experiment on RXF 393; 24.9 µM (inactive) in the experiment on SF-539; > 100 µM (inactive) in the experiment with SK-MEL-28. Besides, the GI50 in the experiment with SK-MEL-5 was 22.5 µM (inactive); in the experiment with SNB-75 it was 57.3 µM (inactive); with U-251 it was 32.8 µM (inactive); with UACC-257, 32.4 µM (inactive).
As for `CC(C)Cc1cccc(C(C)C)c1NC(=O)CCC(=O)N/N=C1\C(=N/NC(=O)CCC(=O)Nc2c(C(C)C)cccc2C(C)C)C(c2ccc3c(c2)OCO3)Oc2ccccc21` (stereo not drawn), the GI50 is 83 µM (inactive) in the experiment with ACHN; > 100 µM (inactive) in the experiment on HCC 2998; 61.2 µM (inactive) with HCT-116; 17.1 µM with HCT-15; 43.8 µM (inactive) in the experiment with HT-29; 29.5 µM (inactive) in the experiment on IGROV-1. Further, the GI50 was 19.5 µM (inactive) in the experiment with NCI-H522; 59.2 µM (inactive) with RPMI-8226; 34.9 µM (inactive) with RXF 393; 97.7 µM (inactive) in the experiment on SF-539; > 100 µM (inactive) in the experiment on SK-MEL-28; > 100 µM (inactive) in the experiment on SK-MEL-5. The GI50 in the experiment on SNB-75 was 49.2 µM (inactive); in the experiment with U-251, 35 µM (inactive); in the experiment on UACC-257 it was > 100 µM (inactive).
In the case of `C[C@]12CCC(=O)CC1CCCC2=O` (stereo partly drawn), the GI50 was > 100 µM (inactive) in the experiment on HCC 2998; > 100 µM (inactive) with HCT-116; over 100 µM in the experiment on HCT-15; > 100 µM (inactive) in the experiment with HT-29; > 100 µM (inactive) in the experiment with IGROV-1; > 100 µM (inactive) in the experiment with Malme-3M. The GI50 in the experiment with NCI-H522, in the experiment with RPMI-8226, with RXF 393, with SF-539, in the experiment with SK-MEL-28 and in the experiment with SK-MEL-5 was > 100 µM (inactive) throughout. The GI50 in the experiment on SNB-75, with U-251 and in the experiment on UACC-257 was > 100 µM (inactive) throughout.
Regarding `CC(C)OC(=O)c1cc(NC(=O)C(C)(C)C)c(F)cc1Cl`, the GI50 is > 100 µM (inactive) with ACHN; > 100 µM (inactive) in the experiment with HCC 2998; > 100 µM (inactive) with HCT-116; over 100 µM with HCT-15; > 100 µM (inactive) in the experiment with HT-29; > 100 µM (inactive) in the experiment on IGROV-1. Besides, the GI50 in the experiment on Malme-3M, in the experiment with NCI-H522, in the experiment on RPMI-8226, in the experiment on RXF 393, in the experiment with SF-539 and in the experiment with SK-MEL-28 was > 100 µM (inactive) throughout. The GI50 with SK-MEL-5, in the experiment with SNB-75, in the experiment on U-251 and in the experiment on UACC-257 was > 100 µM (inactive) each time.
With `S=C(N/N=C/c1ccccc1)NC12CC3CC(CC(C3)C1)C2`, the GI50 in the experiment on ACHN is 51.8 µM (inactive); in the experiment with HCT-116, 29.5 µM (inactive); in the experiment on HCT-15, 47.8 µM; in the experiment with HT-29 it was 5.31 µM (inactive); in the experiment on IGROV-1 it was > 100 µM (inactive); in the experiment on NCI-H522 it was 29.5 µM (inactive). In addition, the GI50 is 22 µM (inactive) in the experiment with RPMI-8226; 23.7 µM (inactive) in the experiment with RXF 393; 12.4 µM (inactive) in the experiment on SF-539; 59.3 µM (inactive) in the experiment on SK-MEL-28; 27.2 µM (inactive) with SK-MEL-5; 53.8 µM (inactive) with U-251. Further, the GI50 in the experiment with UACC-257 is 26.1 µM (inactive).
For the molecule `O=c1cc[nH]c2c1ccc1ncccc12`, the GI50 was > 100 µM (inactive) with ACHN; > 100 µM (inactive) with HCC 2998; > 100 µM (inactive) with HCT-116; over 100 µM in the experiment on HCT-15; > 100 µM (inactive) in the experiment on HT-29; > 100 µM (inactive) in the experiment on IGROV-1. The GI50 in the experiment on Malme-3M, in the experiment on NCI-H522, with RXF 393, with SF-539, with SK-MEL-28 and with SK-MEL-5 was > 100 µM (inactive) in each case. Besides, the GI50 in the experiment on SNB-75, with U-251 and in the experiment with UACC-257 was > 100 µM (inactive) in each case.
With `COc1cc([C@@H]2c3cc4c(cc3[C@@H](NC(=O)c3ccc(C#N)cc3)C3COC(=O)[C@@H]32)OCO4)cc(OC)c1O` (stereo partly drawn), the GI50 was 0.0914 µM (active) with ACHN; 1.6 µM (inactive) in the experiment on HCC 2998; 0.459 µM (active) with HCT-116; 2.28 µM with HCT-15; 1.25 µM (inactive) in the experiment with HT-29; 0.191 µM (active) in the experiment on IGROV-1. Also, the GI50 with Malme-3M was 0.355 µM (active); in the experiment with NCI-H522, 0.451 µM (active); in the experiment with RPMI-8226, 2.84 µM (inactive); with RXF 393, 1.97 µM (inactive); in the experiment with SF-539, 0.249 µM (active); in the experiment with SK-MEL-28, 2.43 µM (inactive). Also, the GI50 in the experiment on SK-MEL-5 was 0.743 µM (active); with SNB-75, 0.673 µM (active); in the experiment with U-251 it was 0.106 µM (active); in the experiment with UACC-257 it was 2.58 µM (inactive).
As for `CN1C/C(=C\c2ccc(C(=O)O)cc2)C(=O)/C(=C/c2ccc(C(=O)O)cc2)C1`, the GI50 in the experiment with ACHN was > 100 µM (inactive); with HCC 2998, > 100 µM (inactive); in the experiment on HCT-116, > 100 µM (inactive); in the experiment with HCT-15, over 100 µM; with HT-29, > 100 µM (inactive); in the experiment on IGROV-1 it was > 100 µM (inactive). Besides, the GI50 with Malme-3M, in the experiment with RPMI-8226, in the experiment with RXF 393, with SF-539, in the experiment with SK-MEL-28 and in the experiment with SK-MEL-5 was > 100 µM (inactive) in each case. The GI50 in the experiment with SNB-75, with U-251 and with UACC-257 was > 100 µM (inactive) throughout.
